Counter-ions that a name gives are not always drawn.
Experiment: collision cross section in nitrogen (drift tube, single-field); higher = larger gas-phase ion size
[1] = ion type: [M-H], ion source: ESI, ion mode: Negative
[2] = ion type: [M+H], ion source: APCI, ion mode: Positive
[3] = ion type: [M+H], ion source: ESI, ion mode: Positive
[4] = ion type: [M+], ion source: APCI, ion mode: Positive
[5] = ion type: [M+Na], ion source: ESI, ion mode: Positive
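Also: chemical standards at 10 µM analysed by drift tube IMS-QTOF MS in about 3.95 torr nitrogen, mean of duplicate injections differing ≤1%, mass error below 10 ppm.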

| collision cross section in nitrogen [1] [Å²] | collision cross section in nitrogen [2] [Å²] | collision cross section in nitrogen [3] [Å²] | collision cross section in nitrogen [5] [Å²] | SMILES | other results |
| --- | --- | --- | --- | --- | --- |
| 177.5 |  |  |  | CC(CCC(=O)O)(c1ccc(O)cc1)c1ccc(O)cc1 [4,4-Bis(4-hydroxyphenyl)valeric acid] |  |
| 146.5 |  |  |  | O=C(O)c1ccc2c(c1)C(=O)OC2=O [Trimellitic anhydride] |  |
| 125.5 |  |  |  | Nc1cc([N+](=O)[O-])ccc1Cl [2-Chloro-5-nitroaniline] |  |
|  | 117.3 | 118.8 |  | Nc1ccnc(=O)[nH]1 [Cytosine] |  |
| 132.5 |  |  |  | CC(=O)Nc1ccc(O)cc1 [Acetaminophen] |  |
|  |  | 156.2 |  | CC(C)(C(=O)c1cccnc1)c1cccnc1 [Metyrapone] |  |
|  | 197.6 | 197.1 | 191 | OCC(CO)n1cnc(-c2ccc(F)cc2)c1-c1ccnc(Oc2ccccc2)n1 |  |
| 151.1 |  |  |  | O=C(c1ccccc1)c1ccc(O)c(O)c1O [2,3,4-Trihydroxbenzophenone] |  |
|  | 155.5 | 156.4 |  | CC(C)c1ccc2sc3ccccc3c(=O)c2c1 [2-Isopropylthioxanthone] |  |
| 155.9 | 154.6 |  | 167.3 | CCOc1ccc(NC(=O)CC(C)=O)cc1 [N-(4-Ethoxyphenyl)-3-oxobutanamide] |  |
| 217.4 |  |  |  | Cc1c(C2(c3cc(Br)c(O)c(Br)c3C)c3ccccc3OS2(=O)=O)cc(Br)c(O)c1Br |  |
|  | 178.5 | 177.8 | 189 | CC(C)(Oc1ccc(CCNC(=O)c2ccc(Cl)cc2)cc1)C(=O)O [Bezafibrate] |  |
| 137.9 |  |  |  | Nc1ccc(S(=O)(=O)O)c(N)c1 [2,4-Diaminobenzenesulfonic acid] |  |
| 160.4 |  |  |  | O=C(Nc1ccc2c(c1)Cc1ccccc1-2)C(F)(F)F [N-(2-Fluorenyl)-2,2,2-trifluoroacetamide] | collision cross section in nitrogen [4]: 156.6 Å² |
|  | 150.8 | 149.6 |  | c1ccc(CNCc2ccccc2)cc1 [Dibenzylamine] |  |
|  | 143.1 |  |  | Nc1ccc(Nc2ccccc2)cc1 [N-Phenyl-1,4-benzenediamine] |  |
| 147.1 | 143.1 | 143.3 |  | Cc1cccc(NC(=S)N(C)C)c1 [Methiuron] |  |
|  | 138 | 138.5 |  | CC(C)c1ccc2ncccc2c1 [6-(1-Methylethyl)quinoline] |  |
| 175.5 |  | 161.1 | 174.9 | CCN(Cc1cccc(S(=O)(=O)O)c1)c1ccccc1 [3-((Ethylphenylamino)methyl)benzenesulfonic acid] |  |
|  | 167.1 | 167.8 |  | CN(C)CCC(c1ccc(Br)cc1)c1ccccn1 (stereo not drawn) [Brompheniramine hydrogen maleate] |  |
| 213.4 | 215.7 | 215.2 | 220.7 | O=C(c1ccc(OCCN2CCCCC2)cc1)c1c(-c2ccc(O)cc2)sc2cc(O)ccc12 [Raloxifene hydrochloride] |  |
|  |  |  | 180.7 | CC(C)(COC(=O)c1ccccc1)COC(=O)c1ccccc1 [Neopentyl glycol dibenzoate] |  |
|  |  | 136.2 |  | CC(=O)Nc1ccc(C)cc1C [N-(2,4-Dimethylphenyl)acetamide] |  |
| 282.8 |  | 307.5 |  | O=S(=O)(O)c1cc(Nc2nc(Nc3ccccc3)nc(N(CCO)CCO)n2)ccc1C=Cc1ccc(Nc2nc(Nc3ccccc3)nc(N(CCO)CCO)n2)cc1S(=O)(=O)O [C.I. Fluorescent Brightener 28, disodium salt] |  |
| 123.7 |  |  |  | Oc1nc2ccccc2s1 [Benzothiazolone] |  |
|  | 118.1 | 119.5 |  | Cc1ccnc(N)c1 [4-Methylpyridin-2-amine] |  |
| 173.8 |  |  |  | CCCCCCCCCCCCc1ccccc1O [n-Dodecylphenol] |  |
| 206 | 194.6 | 194 | 203 | O=C(Nc1ccccc1SSc1ccccc1NC(=O)c1ccccc1)c1ccccc1 [2,2'-Dibenzoylaminodiphenyl disulfide] |  |
| 121.3 |  |  |  | Oc1cccc(C(F)(F)F)c1 [3-(Trifluoromethyl)phenol] |  |
| 148.6 | 140.9 | 141.3 | 165.6 | Cc1cc(=O)oc2cc(N(C)C)ccc12 [7-(Dimethylamino)-4-methylcoumarin] |  |

The remaining lines, values behind:

| SMILES | collision cross section in nitrogen [1] [Å²] | collision cross section in nitrogen [2] [Å²] | collision cross section in nitrogen [3] [Å²] | collision cross section in nitrogen [5] [Å²] | other results |
| --- | --- | --- | --- | --- | --- |
| CCCCC(CC)CCC(CC(C)C)OS(=O)(=O)O (stereo not drawn) [7-Ethyl-2-methyl-4-undecanolsulfate, sodium salt] | 175.2 |  |  |  |  |
| Nc1ccc(-c2ccc(N)cc2)cc1 [4,4′-Diamino-1,1′-biphenyl] |  | 156.9 | 157 |  | collision cross section in nitrogen [4]: 139.4 Å² |
| CCCCOP(=O)(O)OCCCC [Phosphoric acid, dibutyl ester] | 151.3 |  |  |  |  |
| CC(C)c1cccc(C(C)C)c1O [Propofol] | 143.5 |  |  |  |  |
| N=C(Nc1ccccc1)Nc1ccccc1 [1,3-Diphenylguanidine] |  | 150.7 | 150.8 |  |  |
| CC(C)OC(=O)c1ccccc1C(=O)OC(C)C [Diisopropyl phthalate] |  |  |  | 169.9 |  |
| CCC(Cc1c(I)cc(I)c(N)c1I)C(=O)O (stereo not drawn) [Iopanoic acid] |  |  |  |  | collision cross section in nitrogen [4]: 171.5 Å² |
| C/C=C/C=C/CO [(2E,4E)-Hexa-2,4-dien-1-ol] |  |  |  |  | collision cross section in nitrogen [4]: 117.4 Å² |
| CCOP(=S)(OCC)SCSP(=S)(OCC)OCC [Ethion] |  |  |  | 182.3 |  |
| c1cnc2c(n1)CCCC2 [5,6,7,8-Tetrahydroquinoxaline] |  | 126.6 |  |  |  |
| CCCCCCCCCCCCCC(=O)O [Tetradecanoic acid] | 161.8 |  |  |  |  |
| OC[C@H]1O[C@H](O[C@]2(CCl)O[C@H](CCl)[C@@H](O)[C@@H]2O)[C@H](O)[C@@H](O)[C@H]1Cl [Sucralose] | 174.5 |  |  | 179.7 |  |
| CCCCc1c(C)nc(NCC)nc1O [Ethirimol] | 155.2 | 152.1 | 152 | 167.3 |  |
| O=C(NC(=O)c1c(F)cccc1F)Nc1cc(Cl)c(F)c(Cl)c1F [Teflubenzuron] | 178.7 |  |  |  |  |
| O=P(O)(Oc1ccccc1)Oc1ccccc1 [Diphenyl phosphate] | 153.6 |  | 156.5 |  |  |
| CO/C=C(/C(=O)OC)c1ccccc1COc1cccc(C(F)(F)F)n1 [Picoxystrobin] |  |  |  | 179.3 |  |
| CC(C)(C)N(NC(=O)c1ccc(Cl)cc1)C(=O)c1ccccc1 [Halofenozide] | 178.2 |  |  | 188.3 |  |

| SMILES | collision cross section in nitrogen [1] [Å²] | collision cross section in nitrogen [2] [Å²] | collision cross section in nitrogen [3] [Å²] | collision cross section in nitrogen [5] [Å²] | other results |
| --- | --- | --- | --- | --- | --- |
| C[C@]12CC[C@H](O)C[C@H]1CC[C@@H]1[C@@H]2C[C@@H](O)[C@]2(C)[C@@H](C3=CC(=O)OC3)CC[C@]12O [Digoxigenin] |  |  |  | 220.7 |  |
| COc1cccc2c1cc([N+](=O)[O-])c1c(C(=O)O)cc3c(c12)OCO3 [Sodium aristolochate-I] |  |  |  | 185.6 |  |
| O=c1n(CCO)c(=O)n(CCO)c(=O)n1CCO [Tris(2-hydroxyethyl) isocyanurate] |  |  |  | 159.3 |  |
| CCCCc1ccc(O)cc1 [4-Butylphenol] | 140.6 |  |  |  |  |
| CC(=O)Nc1c(I)c(NC(C)=O)c(I)c(C(=O)O)c1I [Diatrizoate sodium] |  |  | 175.5 | 179.4 |  |
| CCCCCCCCCCCCCCOS(=O)(=O)O [Sodium myristyl sulfate] | 173.4 |  |  |  |  |
| CCCCC(CC)COC(=O)CC(C(=O)OCC(CC)CCCC)S(=O)(=O)O (stereo not drawn) [Docusate sodium] | 206.1 |  |  |  |  |
| C=CC(=O)OCCOCCOCC [2-(2-Ethoxyethoxy)ethyl acrylate] |  |  |  | 142.6 |  |
| COP(=S)(OC)Oc1ccc(Sc2ccc(OP(=S)(OC)OC)cc2)cc1 [Temephos] |  | 189.4 | 189.5 | 196.3 |  |
| CCCCCCCC(=O)OC [Methyl octanoate] | 146.7 |  |  |  |  |
| O=C(Oc1ccccc1)c1ccccc1C(=O)Oc1ccccc1 [Diphenyl phthalate] |  |  |  | 181.1 |  |
| c1coc(-c2nc3ccccc3[nH]2)c1 [Fuberidazole] | 138 | 136.1 | 136.8 |  |  |
| O=C(OCC1CCC2OC2C1)C1CCC2OC2C1 (stereo not drawn) [ECC] |  |  |  | 158 |  |
| CCCCCCCCCCCC[N+](C)(C)[O-] [N,N-Dimethyldodecylamine-N-oxide] |  | 175.3 | 174.4 | 170.8 |  |
| Cc1nn(-c2cc(NS(C)(=O)=O)c(Cl)cc2Cl)c(=O)n1C(F)F [Sulfentrazone] | 182.4 |  | 178.2 | 184 |  |
| C[C@@H]1C[C@H]2[C@@H]3CCC4=CC(=O)C=C[C@]4(C)[C@@]3(F)[C@@H](O)C[C@]2(C)[C@@]1(O)C(=O)COP(=O)(O)O [Dexamethasone sodium phosphate] | 201 |  |  |  |  |

Source: the supplement of paper PMC12317010
